Test results reported in patent US20240246913A1, “2-CARBOXYL-INDOLE INHIBITORS OF METALLO-BETA-LACTAMASES” (Oxford University Innovation Limited, priority 2021, published 2024).

Experiments:
Format in all cases: biochemical
IMP-1 = IMP-1 (Serratia marcescens, UniProt P52699); experiment: MBL inhibition, FC-5 fluorescence assay, IMP-1; settings: FC-5 cephalosporin substrate, fluorescence; ranges of obtained pIC50; read-out: pIC50 IMP-1 (converted)
Protocol: (§1) Inhibitors were tested using a panel of the clinically relevant B1 MBLs (NDM-1, VIM-1, -2 and IMP-1). Activities were assayed by monitoring the release of a fluorophore following the enzymatic breakdown of the cephalosporin FC-5 (https://pubs.acs.org/doi/abs/10.1021/jm400769b). FC-5 assays were conducted in clear bottomed 384 black well microplates (Greiner); the initial rate of reaction was assessed by monitoring the fluorescence intensity (λex=380 nm and λem=460 nm) using a Pherstar FS (BMG LabTech) plate reader. Initial rates of reaction were determined and dose-response analyses conducted in GraphPad Prism. Dose-response curves were fitted using the log(inhibitor) vs normalized response—variable slope model of GraphPad Prism 12. Each concentration point for routine screening was conducted with 4 intra-plate replicates.

VIM-1 = VIM-1 (Pseudomonas aeruginosa, UniProt A0A0F7KYQ8); experiment: MBL inhibition, FC-5 fluorescence assay, VIM-1; settings: FC-5 cephalosporin substrate, ranges of obtained pIC50, read-out: pIC50 VIM-1 (converted)
Protocol: as §1

VIM-2 = VIM-2 (Escherichia coli, UniProt Q5U7L7); experiment: MBL inhibition, FC-5 fluorescence assay, VIM-2; settings: FC-5 cephalosporin substrate, ranges of obtained pIC50, read-out: pIC50 VIM-2 (converted)
Protocol: as §1

NDM-1 = NDM-1 (Klebsiella pneumoniae, UniProt C7C422); experiment: MBL inhibition, FC-5 fluorescence assay, NDM-1; settings: FC-5 cephalosporin substrate, fluorescence; ranges of obtained pIC50; read-out: pIC50 NDM-1 (converted)
Protocol: as §1

Chain of NDM-1 (C7C422 29-270, looked up, species assumed): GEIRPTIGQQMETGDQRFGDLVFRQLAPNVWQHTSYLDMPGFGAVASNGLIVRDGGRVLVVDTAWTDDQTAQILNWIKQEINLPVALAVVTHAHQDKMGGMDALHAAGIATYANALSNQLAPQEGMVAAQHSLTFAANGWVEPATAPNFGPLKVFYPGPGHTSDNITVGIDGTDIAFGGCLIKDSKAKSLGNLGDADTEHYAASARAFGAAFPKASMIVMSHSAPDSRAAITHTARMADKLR
Chain of IMP-1 (P52699 19-246, looked up, species assumed): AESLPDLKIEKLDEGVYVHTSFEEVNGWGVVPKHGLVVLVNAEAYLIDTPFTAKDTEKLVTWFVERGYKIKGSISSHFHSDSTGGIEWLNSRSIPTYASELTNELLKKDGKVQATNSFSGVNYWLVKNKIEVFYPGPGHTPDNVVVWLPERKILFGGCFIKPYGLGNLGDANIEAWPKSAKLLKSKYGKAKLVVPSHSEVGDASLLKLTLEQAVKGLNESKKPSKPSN

| Structure (SMILES) | IC50 (IMP-1) [nM] | IC50 (VIM-1) [nM] | IC50 (VIM-2) [nM] | IC50 (NDM-1) [nM] |
| --- | --- | --- | --- | --- |
| CC(NC(=O)C[C@H]1CC[C@H](N)CC1)c1cccc2c(-c3ccc(CS(C)(=O)=O)c(F)c3)c(C(=O)O)[nH]c12 (mixture of isomers) [IC-100, 7-[1-[[2-(4-Aminocyclohexyl)acetyl]amino]ethyl]-3-[3-fluoro-4-(methylsulfonylmethyl)phenyl]-1H-indole-2-carboxylic acid] | > 10 | > 10 | 0.1 to 1 | > 10 |
| CC(CC(=O)NCCc1c[nH]cn1)c1cccc2c(-c3ccc(CS(C)(=O)=O)c(F)c3)c(C(=O)O)[nH]c12 (racemic) [IC-104, 3-[3-Fluoro-4-(methanesulfonylmethyl)phenyl]-7-(1-{[2-(1H-imidazol-4-yl)ethyl]carbamoy}propan-2-yl)-1H-indole-2-carboxylic acid] | > 10 | > 10 | > 10 | 1 to 10 |
| CC(c1cccc2c(-c3ccc(CS(C)(=O)=O)c(F)c3)c(C(=O)O)[nH]c12)N1CC(CCCN)OC1=O (single isomer, unassigned) [IC-83, 7-(1-(5-(3-Aminopropyl)-2-oxooxazolidin-3-yl)ethyl)-3-(3-fluoro-4-((methylsulfonyl)methyl)phenyl)-1H-indole-2-carboxylic acid] | – | 1 to 10 | 1 to 10 | – |
| CC(c1cccc2c(-c3ccc(CS(C)(=O)=O)c(F)c3)c(C(=O)O)[nH]c12)N1CC(CCCN)OC1=O (single isomer, unassigned) [IC-84, 7-(1-(5-(3-Aminopropyl)-2-oxooxazolidin-3-yl)ethyl)-3-(3-fluoro-4-((methylsulfonyl)methyl)phenyl)-1H-indole-2-carboxylic acid] | > 10 | 0.1 to 1 | 0.1 to 1 | 0.1 to 1 |
| CC(NS(=O)(=O)c1ccccc1)c1cccc2c(-c3cc(Cl)cc(Cl)c3)c(C(=O)O)[nH]c12 (centres unmarked) [IC-1, 3-(3,5-Dichlorophenyl)-7-(1-(phenylsulfonamido)ethyl)-1H-indole-2-carboxylic acid] | > 10 | > 10 | > 10 | > 10 |
| CC(c1cnn(C)c1)c1cccc2c(-c3ccc(CS(C)(=O)=O)c(F)c3)c(C(=O)O)[nH]c12 (centres unmarked) [IC-3, 3-(3-Fluoro-4-((methylsulfonyl)methyl)phenyl)-7-(1-(1-methyl-1H-pyrazol-4-yl)ethyl)-1H-indole-2-carboxylic acid] | > 10 | > 10 | 1 to 10 | 1 to 10 |
| CC(c1cccs1)c1cccc2c(-c3ccc(CS(C)(=O)=O)c(F)c3)c(C(=O)O)[nH]c12 (centres unmarked) [IC-4, 3-(3-Fluoro-4-((methylsulfonyl)methyl)phenyl)-7-(1-(thiophen-2-yl)ethyl)-1H-indole-2-carboxylic acid] | 1 to 10 | 1 to 10 | 1 to 10 | 1 to 10 |
| CC(c1cnn(CCCN)c1)c1cccc2c(-c3ccc(CS(C)(=O)=O)c(F)c3)c(C(=O)O)[nH]c12 (centres unmarked) [IC-5, 7-(1-(1-(3-Aminopropyl)-1H-pyrazol-4-yl)ethyl)-3-(3-fluoro-4-((methylsulfonyl)methyl)phenyl)-1H-indole-2-carboxylic acid] | > 10 | 1 to 10 | < 0.1 | 0.1 to 1 |
| CC(c1cnc(Cl)s1)c1cccc2c(-c3ccc(CS(C)(=O)=O)c(F)c3)c(C(=O)O)[nH]c12 (centres unmarked) [IC-7, 7-(1-(2-Chlorothiazol-5-yl)ethyl)-3-(3-fluoro-4-((methylsulfonyl)methyl)phenyl)-1H-indole-2-carboxylic acid] | 1 to 10 | 1 to 10 | 1 to 10 | 0.1 to 1 |
| CC(c1nn[nH]n1)c1cccc2c(-c3ccc(CS(C)(=O)=O)c(F)c3)c(C(=O)O)[nH]c12 (centres unmarked) [IC-9, 7-(1-(2H-Tetrazol-5-yl)ethyl)-3-(3-fluoro-4-((methylsulfonyl)methyl)phenyl)-1H-indole-2-carboxylic acid] | > 10 | > 10 | > 10 | > 10 |
